Laboratory results published in ChEMBL document CHEMBL1201862, “PubChem BioAssay data set” (2004).
The source made the active and inactive calls. Cut-off read from the data, not from the text of the source, for most assays here: actives have a measured EC50 and inactives only a lower limit.

How the values were obtained:
Caspase-3 = molecular target: T1, Caspase-3 (Homo sapiens, UniProt P42574); experiment: SAR Analysis of small molecule inhibitors of Sentrin-specific proteases (SENPs) using a Caspase-3 Selectivity assay. [Related pubchem assays (depositor defined):AID2540, AID2599, AID434973, AID489001]; assay type: functional
T1 sequence (P42574 whole entry): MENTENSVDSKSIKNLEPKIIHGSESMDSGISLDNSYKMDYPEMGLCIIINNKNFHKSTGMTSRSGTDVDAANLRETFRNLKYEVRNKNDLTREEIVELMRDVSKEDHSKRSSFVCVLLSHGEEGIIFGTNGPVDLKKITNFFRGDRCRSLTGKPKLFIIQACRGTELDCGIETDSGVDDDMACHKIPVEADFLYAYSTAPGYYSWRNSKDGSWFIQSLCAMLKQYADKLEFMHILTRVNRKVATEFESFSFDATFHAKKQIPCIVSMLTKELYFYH

[1] = molecular target: T2, Sentrin-specific protease 8 (Homo sapiens, UniProt Q96LD8); experiment: inhibition of human SENP8 cleavage activity – biochemical, luminescence, SAR follow-up (AID 504501); assay type: functional
T2 sequence (Q96LD8 whole entry): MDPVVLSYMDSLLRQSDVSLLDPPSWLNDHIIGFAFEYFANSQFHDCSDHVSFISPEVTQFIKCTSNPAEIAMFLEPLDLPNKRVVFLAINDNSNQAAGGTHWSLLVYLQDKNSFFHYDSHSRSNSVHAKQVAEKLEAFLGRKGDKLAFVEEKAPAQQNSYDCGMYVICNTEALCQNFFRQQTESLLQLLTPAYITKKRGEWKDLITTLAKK

[2] = molecular target: T3, Sentrin-specific protease 6 (Homo sapiens, UniProt Q9GZR1); experiment: SAR Analysis of small molecule inhibitors of Sentrin-specific protease 6 (SENP6) using a Luminescent assay. [Related pubchem assays (depositor defined):AID2582, AID2599]; assay type: functional
T3 sequence (Q9GZR1 whole entry): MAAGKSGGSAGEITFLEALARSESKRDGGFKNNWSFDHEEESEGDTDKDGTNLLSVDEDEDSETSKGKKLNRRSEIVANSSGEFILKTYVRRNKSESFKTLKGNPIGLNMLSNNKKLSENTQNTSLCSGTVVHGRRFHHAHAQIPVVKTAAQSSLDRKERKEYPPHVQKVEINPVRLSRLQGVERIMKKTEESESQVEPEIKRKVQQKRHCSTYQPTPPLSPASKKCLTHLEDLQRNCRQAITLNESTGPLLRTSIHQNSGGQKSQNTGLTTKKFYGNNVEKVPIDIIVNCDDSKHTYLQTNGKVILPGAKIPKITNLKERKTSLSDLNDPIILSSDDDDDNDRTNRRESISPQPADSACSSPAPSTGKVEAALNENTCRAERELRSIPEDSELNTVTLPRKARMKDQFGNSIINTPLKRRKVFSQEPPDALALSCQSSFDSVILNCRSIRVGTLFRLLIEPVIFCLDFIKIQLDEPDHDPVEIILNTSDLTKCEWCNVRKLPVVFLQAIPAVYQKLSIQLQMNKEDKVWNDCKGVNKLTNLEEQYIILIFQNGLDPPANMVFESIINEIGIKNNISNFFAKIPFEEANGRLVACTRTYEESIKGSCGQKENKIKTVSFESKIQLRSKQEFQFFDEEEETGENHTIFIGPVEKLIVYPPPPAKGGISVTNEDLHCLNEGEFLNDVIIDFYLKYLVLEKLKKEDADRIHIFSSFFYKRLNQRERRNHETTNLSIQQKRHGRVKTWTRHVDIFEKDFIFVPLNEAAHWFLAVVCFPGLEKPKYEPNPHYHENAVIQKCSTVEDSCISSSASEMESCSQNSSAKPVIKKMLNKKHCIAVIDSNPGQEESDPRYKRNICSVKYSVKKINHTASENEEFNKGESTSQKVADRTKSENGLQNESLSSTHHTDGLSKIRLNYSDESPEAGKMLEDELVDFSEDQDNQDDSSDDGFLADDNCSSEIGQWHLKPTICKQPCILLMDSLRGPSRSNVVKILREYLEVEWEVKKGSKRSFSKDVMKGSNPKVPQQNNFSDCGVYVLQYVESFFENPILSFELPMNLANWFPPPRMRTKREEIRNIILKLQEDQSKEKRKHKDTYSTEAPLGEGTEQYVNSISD

[3] = molecular target: T4, Sentrin-specific protease 7 (Homo sapiens, UniProt Q9BQF6); experiment: inhibition of human SENP7 cleavage activity – biochemical, luminescence, SAR follow-up (AID 504497); assay type: functional
T4 sequence (Q9BQF6 whole entry): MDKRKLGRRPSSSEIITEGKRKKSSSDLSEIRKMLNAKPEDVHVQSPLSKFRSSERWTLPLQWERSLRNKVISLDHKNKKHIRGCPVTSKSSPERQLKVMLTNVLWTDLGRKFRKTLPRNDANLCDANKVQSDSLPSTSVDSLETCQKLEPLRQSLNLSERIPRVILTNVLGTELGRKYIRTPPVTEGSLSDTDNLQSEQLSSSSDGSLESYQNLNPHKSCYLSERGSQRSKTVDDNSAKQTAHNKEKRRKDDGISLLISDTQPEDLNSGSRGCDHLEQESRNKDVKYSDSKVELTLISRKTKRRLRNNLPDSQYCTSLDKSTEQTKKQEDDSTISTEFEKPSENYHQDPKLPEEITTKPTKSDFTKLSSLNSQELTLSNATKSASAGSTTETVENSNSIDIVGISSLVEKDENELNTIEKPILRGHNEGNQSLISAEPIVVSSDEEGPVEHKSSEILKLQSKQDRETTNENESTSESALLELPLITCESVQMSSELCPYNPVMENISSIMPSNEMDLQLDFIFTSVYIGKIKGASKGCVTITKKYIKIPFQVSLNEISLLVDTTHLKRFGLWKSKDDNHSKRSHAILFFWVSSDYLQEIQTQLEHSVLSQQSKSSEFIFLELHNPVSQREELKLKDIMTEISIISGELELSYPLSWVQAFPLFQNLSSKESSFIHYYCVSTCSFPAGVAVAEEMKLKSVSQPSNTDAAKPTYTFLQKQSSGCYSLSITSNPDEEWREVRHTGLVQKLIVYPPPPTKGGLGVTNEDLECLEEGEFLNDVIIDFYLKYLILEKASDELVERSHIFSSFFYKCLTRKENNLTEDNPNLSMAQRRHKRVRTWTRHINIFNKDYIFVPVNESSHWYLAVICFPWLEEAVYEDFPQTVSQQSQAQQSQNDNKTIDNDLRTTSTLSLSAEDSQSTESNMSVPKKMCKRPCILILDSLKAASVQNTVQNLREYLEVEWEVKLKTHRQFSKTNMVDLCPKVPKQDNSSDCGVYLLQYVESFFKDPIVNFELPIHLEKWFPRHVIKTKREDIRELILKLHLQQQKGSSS

[4] = molecular target: Sphingosine 1-phosphate receptor 2 (Homo sapiens, UniProt O95136); experiment: Late-stage fluorescence-based dose-response cell-based counterscreen assay to identify agonists of the Sphingosine 1-Phosphate Receptor 3 (S1P3): Sphingosine 1-Phosphate Receptor 2 (S1P2) agonist assay.; assay type: functional
Sphingosine 1-phosphate receptor 2, sequence (O95136 whole entry): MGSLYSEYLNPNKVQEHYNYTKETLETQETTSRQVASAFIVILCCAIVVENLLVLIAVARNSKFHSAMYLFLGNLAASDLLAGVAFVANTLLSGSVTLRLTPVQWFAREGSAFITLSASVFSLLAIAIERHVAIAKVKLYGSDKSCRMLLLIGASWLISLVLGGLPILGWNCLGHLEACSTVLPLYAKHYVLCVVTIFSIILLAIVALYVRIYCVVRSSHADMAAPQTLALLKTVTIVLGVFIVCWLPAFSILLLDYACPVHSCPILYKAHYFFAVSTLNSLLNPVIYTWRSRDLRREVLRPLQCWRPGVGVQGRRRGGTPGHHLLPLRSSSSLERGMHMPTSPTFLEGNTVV

[5] = molecular target: T5, Sphingosine 1-phosphate receptor 4 (Homo sapiens, UniProt O95977); experiment: Late-stage fluorescence-based dose-response cell-based counterscreen assay to identify agonists of the Sphingosine 1-Phosphate Receptor 3 (S1P3): Sphingosine 1-Phosphate Receptor 4 (S1P4) agonist assay.; assay type: functional
T5 sequence (O95977 whole entry): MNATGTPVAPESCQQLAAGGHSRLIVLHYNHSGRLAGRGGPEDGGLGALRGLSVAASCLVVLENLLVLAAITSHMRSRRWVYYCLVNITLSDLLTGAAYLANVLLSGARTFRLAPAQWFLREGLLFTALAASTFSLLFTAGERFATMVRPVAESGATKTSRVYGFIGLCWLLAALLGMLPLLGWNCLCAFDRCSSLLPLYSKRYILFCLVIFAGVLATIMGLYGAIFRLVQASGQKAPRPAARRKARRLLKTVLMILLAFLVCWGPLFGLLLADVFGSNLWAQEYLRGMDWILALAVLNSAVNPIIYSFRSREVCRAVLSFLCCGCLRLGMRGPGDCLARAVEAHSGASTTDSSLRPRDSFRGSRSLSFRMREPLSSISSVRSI

[6] = DRD fibroblast viability loss – cell-based, non-viral oncogenic, luminescence, dose response (AID 1934); assay type: functional; conditions: Homo sapiens
[7] = MIN6 cell viability loss – mouse insulinoma, cytotoxicity control, dose response (AID 2122); assay type: functional;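 note: confirmatory high-throughput counterscreen run to flag cytotoxic compounds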
[8] = NIH-3T3 fibroblast cytotoxicity, dose response, cytotoxicity control, cell-based, fluorescence, Alamar Blue, secondary assay (AID 2327); assay type: functional;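 note: NIH-3T3 mouse fibroblasts cultured with fluconazole at 8 µg/mL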
[9] = alpha-synuclein stem-loop luciferase translation blockers – H4 neuroglioma cells, luminescence, confirmation (AID 1988); assay type: functional, cell-based
[10] = Luminescence Cell-Based Dose Response HTS to Identify Inhibitors of 5'UTR Stem-Loop Driven Prion Protein mRNA Translation in H4 Neuroglioblastoma Cells. [Related pubchem assays: 1827 (Project Summary), 1813 (Primary HTS)]; assay type: functional
[11] = fluconazole-exposed Candida albicans growth modulators – fluorescence, retest, confirmation (AID 2467); assay type: functional, cell-based
Vero [12] = experiment: cells; assay type: functional; conditions: Chlorocebus sabaeus
Vero [13] = experiment: mammalian cell viability reduction – secondary assay, cytotoxicity control for West Nile virus antiviral project, dose response (AID 1650); assay type: functional; conditions: Chlorocebus sabaeus
cells [14] = assay type: functional, cell-based
BJ [15] = experiment: growth inhibition of engineered Ras-driven BJ cells – cell-based, alamar blue fluorescence, cherrypicked samples, dose response (AID 2631); assay type: functional; conditions: Homo sapiens;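 note: confirmatory dose-response assay in RAS-dependent BJ fibroblasts engineered with TERT, LT and ST, with cytotoxicity read by fluorescence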
[16] = luciferase reporter signal suppression in cells – H4 neuroglioma cells, luminescence, dose response (AID 1990); assay type: functional, cell-based
[17] = molecular target: Latent membrane protein 1 (Human herpesvirus 4 (strain B95-8), UniProt P03230); experiment: LMP1 TES1 pathway selectivity over dsRED control – imaging, HEK293T, dual-color eGFP/dsRED, cherry-picks, selectivity assay for LMP1 NF-kB inhibitor project, dose response (AID 588398); assay type: functional, cell-based
Latent membrane protein 1, sequence (P03230 whole entry): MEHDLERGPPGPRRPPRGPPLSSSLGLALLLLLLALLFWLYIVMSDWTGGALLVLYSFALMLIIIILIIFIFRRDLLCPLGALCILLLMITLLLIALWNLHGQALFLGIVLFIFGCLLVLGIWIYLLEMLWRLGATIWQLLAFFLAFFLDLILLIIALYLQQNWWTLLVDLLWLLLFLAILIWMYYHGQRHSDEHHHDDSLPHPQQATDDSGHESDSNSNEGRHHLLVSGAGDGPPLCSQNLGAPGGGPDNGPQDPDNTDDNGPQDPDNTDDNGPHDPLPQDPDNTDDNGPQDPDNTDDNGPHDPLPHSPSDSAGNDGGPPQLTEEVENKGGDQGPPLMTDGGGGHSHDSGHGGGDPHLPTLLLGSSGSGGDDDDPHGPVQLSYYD

cells [18] = assay type: functional, cell-based; remark: listed apart in the source
BJ [19] = experiment: BJ-TERT-LT-ST fibroblast viability loss – cell-based, RAS-independent, luminescence, dose response (AID 1935); assay type: functional; conditions: Homo sapiens;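 note: BJ fibroblasts immortalized with TERT plus LT and ST oncogenes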
[20] = system: Streptococcus sp. 'group A'; experiment: Streptococcus pyogenes SK(-)GAS viability under kanamycin – luminescence, BacTiterGlo, confirmation, counter-screen for streptokinase expression inhibitor project, dose response (AID 1900); assay type: functional, organism-based
BJ [21] = experiment: BJ-TERT fibroblast viability loss – cell-based, RAS-independent, luminescence, dose response (AID 1933); assay type: functional; conditions: Homo sapiens
BJ [22] = experiment: cells; assay type: functional, cell-based; conditions: Homo sapiens
[23] = decrease of insulin promoter-GFP reporter – imaging, high-content screening, mouse beta cells (AID 1628); assay type: functional; conditions: MIN6
Streptococcus = experiment: GAS UMAA2166 growth inhibition – luminescence, BacTiterGlo, counter-screen for streptokinase expression inhibitor project, dose response (AID 1915); assay type: functional, organism-based;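 note: potency for reduction of bacterial viability or growth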

For `CN(C)CCN(C(=O)c1ccc(Cl)s1)c1nc2ccc(S(C)(=O)=O)cc2s1`, which IC50 (Caspase-3) is on record?
The IC50 was > 99 µM (inactive).

What about the IC50 [1] of the same compound?
Its IC50 is > 99 µM (inactive).

And the IC50 [2]?
Its IC50 is > 99 µM (inactive).

What about the IC50 [3] of the same compound?
Its IC50 is > 99 µM (inactive).

Which results are given for `O=C(NC1CCCCC1)c1cc(C2CC2)on1`?
EC50 [4]: > 50 µM (inactive); EC50 [5]: > 50 µM (inactive)

With `CCN(CC)c1ccc(/C=N/Nc2nc3ccccc3[nH]2)c(O)c1` as the compound, how does the EC50 [6] read?
The EC50 was 1.37 µM (inconclusive).

And the IC50 [7]?
Its IC50 is 2.51 µM (active).

And the EC50 [8]?
Its EC50 is 22.6 µM (inconclusive).

What about the EC50 [9] of the same compound?
Its EC50 is 2.64 µM (active).

What about the EC50 [10] of the same compound?
Its EC50 is 8.71 µM (active).

What about the EC50 [11] of the same compound?
The EC50 was 1.42 µM (active).

What about the CC50 (Vero [12]) of the same compound?
The CC50 was 1.59 µM (active).

And the CC50 (Vero [13])?
Its CC50 is 2.03 µM (active).

And the EC50 (cells [14])?
Its EC50 is 2.56 µM (active).

What about the EC50 (BJ [15]) of the same compound?
Its EC50 is 0.571 µM (inconclusive).

And the EC50 [16]?
Its EC50 is 6.26 µM (active).

And the AC50 [17]?
The AC50 was 17.4 µM (active).

And the EC50 (cells [18])?
Its EC50 is 115 µM (active).

What about the EC50 (BJ [19]) of the same compound?
Its EC50 is 1.37 µM (inconclusive).

And the EC50 [20]?
The EC50 was 4.47 µM (active).

And the EC50 (BJ [21])?
The EC50 was 1.22 µM (active).

And the EC50 (BJ [22])?
The EC50 was 2.15 µM (active).

What about the IC50 [23] of the same compound?
Its IC50 is 2.45 µM (active).

And the EC50 (Streptococcus)?
Its EC50 is 7.8 µM (active).
